Consider six compounds from the NIST ThermoML archive (doi:10.1016/j.fluid.2013.07.028).

Each structure is given as a SMILES string. Numbers after ± are expanded uncertainties.

For data set [1] the following is noted: 298.15 K; 101.33 kPa; Liquid; Vibrating tube method.
The nature of data set [2]: refractive index (Na D-line) (dimensionless). To be noted: 298.15 K; 101.33 kPa; Liquid; Standard Abbe refractometry.

Consider `CC(=O)[O-].CCn1cc[n+](C)c1` [1-ethyl-3-methylimidazolium acetate], for which, in data set [1], the mass density (as a rule, mass per unit of volume) is reported as 1099.02 ± 8.4 kg/m3. For the same compound, the refractive index – broadly, the speed of light in vacuum divided by its phase velocity in the sample – in data set [2] is listed as 1.50069 ± 0.001.

On to `CCOP(=O)([O-])OCC.CCn1cc[n+](C)c1` [1-ethyl-3-methylimidazolium diethyl phosphate], for which the mass density in data set [1] amounted to 1148.4 ± 9.2 kg/m3. Further, in data set [2], the refractive index was 1.47304 ± 0.001.

On to `CCCCCC` [hexane], for which the mass density in data set [1] turned out to be 655.09 ± 0.33 kg/m3. Also, the refractive index in data set [2] is 1.37236 ± 0.00037.

For `c1ccncc1` [pyridine], the mass density in data set [1] turned out to be 978.04 ± 0.12 kg/m3. Moreover, the refractive index in data set [2] was 1.50636 ± 0.00033.

On to `c1ccsc1` [thiophene], for which the mass density in data set [1] came to 1058.61 ± 0.15 kg/m3. In data set [2], the refractive index amounted to 1.52523 ± 0.00033.

For the compound `Cc1ccccc1` [toluene], the mass density in data set [1] is reported as 862.18 ± 0.16 kg/m3. The refractive index in data set [2] came to 1.49367 ± 0.00033.
